# From US20240381760A1, “Compound, Semiconductor Layer Comprising Compound and Organic Electronic Device” (Novaled GmbH, priority 2021, published 2024)
# Assays:
# Assay type in all cases: physicochemical
# [1] = Decomposition temperature Tdec by TGA-DSC; conditions: onset of decomposition in TGA, 10 K/min, nitrogen
# Protocol: The decomposition temperature Tdec is measured by loading a sample of 9 to 11 mg into a Mettler Toledo 100 μL aluminum pan without lid under nitrogen in a Mettler Toledo TGA-DSC 1 machine. The following heating program was used: 25° C. isothermal for 3 min; 25° C. to 600° C. with 10 K/min. The decomposition temperature was determined based on the onset of the decomposition in TGA.
# [2] = Rate onset temperature TRO in VTE source with QCM detector; conditions: 15 K/min, less than 10−5 mbar
# Protocol: The rate onset temperature (TRO) is determined by loading 100 mg compound into a VTE source. As VTE source a point source for organic materials may be used as supplied by Kurt J. Lesker Company (www.lesker.com) or CreaPhys GmbH (http://www.creaphys.com). The VTE source is heated at a constant rate of 15 K/min at a pressure of less than 10−5 mbar and the temperature inside the source measured with a thermocouple. Evaporation of the compound is detected with a QCM detector which detects deposition of the compound on the quartz crystal of the detector. The deposition rate on the quartz crystal is measured in Angstrom per second. To determine the rate onset temperature, the deposition rate is plotted against the VTE source temperature. The rate onset is the temperature at which noticeable deposition on the QCM detector occurs. For accurate results, the VTE source is heated and cooled three time and only results from the second and third run are used to determine the rate onset temperature.
# To achieve good control over the evaporation rate of an organic compound, the rate onset temperature may be in the range of 200 to 255° C. If the rate onset temperature is below 200° C. the evaporation may be too rapid and therefore difficult to control. If the rate onset temperature is above 255° C. the evaporation rate may be too low which may result in low tact time and decomposition of the organic compound in VTE source may occur due to prolonged exposure to elevated temperatures.
# The rate onset temperature is an indirect measure of the volatility of a compound. The higher the rate onset temperature the lower is the volatility of a compound.
# [3] = Sublimation temperature Tsubl in sublimation apparatus; conditions: 10−5 mbar
# Description: Under nitrogen in a glovebox, 0.5 to 5 g compound are loaded into the evaporation source of a sublimation apparatus. The sublimation apparatus consist of an inner glass tube consisting of bulbs with a diameter of 3 cm which are placed inside a glass tube with a diameter of 3.5 cm. The sublimation apparatus is placed inside a tube oven (Creaphys DSU 05/2.1). The sublimation apparatus is evacuated via a membrane pump (Pfeiffer Vacuum MVP 055-3C) and a turbo pump (Pfeiffer Vacuum THM071 YP). The pressure is measured between the sublimation apparatus and the turbo pump using a pressure gauge (Pfeiffer Vacuum PKR 251). When the pressure has been reduced to 10−5 mbar, the temperature is increased in increments of 10 to 30 K till the compound starts to be deposited in the harvesting zone of the sublimation apparatus. The temperature is further increased in increments of 10 to 30 K till a sublimation rate is achieved where the compound in the source is visibly depleted over 30 min to 1 hour and a substantial amount of compound has accumulated in the harvesting zone. The sublimation temperature, also named Tsubl, is the temperature inside the sublimation apparatus at which the compound is deposited in the harvesting zone at a visible rate and is measured in degree Celsius.
# [4] = Solubility in benzonitrile
Compound,Tdec [1],Rate onset temperature TRO [2],Sublimation temperature Tsubl [3],Solubility in benzonitrile ([4]; at 20° C.),Solubility in benzonitrile ([4]; at 60° C. (footnote 2))
"CC(=O)C=C(C)[O-].CC(=O)C=C(C)[O-].[Cu+2] [CC-1, Cu(acac)2]",>280 °C,<100 °C,110-120 °C,–,–
"CC(=O)/C=C(\[O-])C(F)(F)F.CC(=O)/C=C(\[O-])C(F)(F)F.[Cu+2] [CC-2, Cu(tfac)2]",>185 °C,<100 °C,95-100 °C,–,–
"CC(=O)C=C([O-])C(F)(F)F.CC(=O)C=C([O-])C(F)(F)F.CC(=O)C=C([O-])C(F)(F)F.[Bi+3] [CC-3, Bi(tfac)3]",>100 °C,<100 °C,decomposition,–,–
"O=C(C=C([O-])C(F)(F)F)C(F)(F)F.O=C(C=C([O-])C(F)(F)F)C(F)(F)F.O=C(C=C([O-])C(F)(F)F)C(F)(F)F.[Bi+3] [CC-4, Bi(hfac)3]",–,<100 °C,decomposition,–,–
"CC(C)(C)C(=O)C=C([O-])C(F)(F)C(F)(F)C(F)(F)F.CC(C)(C)C(=O)C=C([O-])C(F)(F)C(F)(F)C(F)(F)F.CC(C)(C)C(=O)C=C([O-])C(F)(F)C(F)(F)C(F)(F)F.[Bi+3] [CC-5, Bi(fod)3]",>200 °C,<100 °C,120 °C,–,–
"CC(C)(C)/C([O-])=C/C(=O)C(F)(F)C(F)(F)C(F)(F)F.CC(C)(C)/C([O-])=C/C(=O)C(F)(F)C(F)(F)C(F)(F)F.CC(C)(C)/C([O-])=C/C(=O)C(F)(F)C(F)(F)C(F)(F)F.[La+3] [CC-6, La(fod)3]",>260 °C,101 °C,170 °C,–,–
"N#C/C(C(=O)c1cc(C(F)(F)F)cc(C(F)(F)F)c1)=C(/[O][Cu][O]/C(=C(/C#N)C(=O)c1cc(C(F)(F)F)cc(C(F)(F)F)c1)c1cc(C(F)(F)F)cc(C(F)(F)F)c1)c1cc(C(F)(F)F)cc(C(F)(F)F)c1 [MC-1, bis(((Z)-1,3-bis(3,5-bis(trifluoromethyl)phenyl)-2-cyano-3-oxoprop-1-en-1-yl)oxy)copper]",>319 °C,204 °C,261 °C,–,–
"N#C/C(C(=O)C(F)(F)C(F)(F)F)=C(/[O][Cu][O]/C(=C(/C#N)C(=O)C(F)(F)C(F)(F)F)c1ccc(-c2cc(C(F)(F)F)cc(C(F)(F)F)c2)cc1)c1ccc(-c2cc(C(F)(F)F)cc(C(F)(F)F)c2)cc1 [MC-2, bis(((Z)-1-(3′,5′-bis(trifluoromethyl)-[1,1′-biphenyl]-4-yl)-2-cyano-4,4,5,5,5-pentafluoro-3-oxopent-1-en-1-yl)oxy)copper]",>330 °C,–,decomposition,>10 mg/mL,–
"C/C(C(=O)c1ccnc(C(F)(F)F)c1)=C(/[O][Cu][O]/C(=C(/C)C(=O)c1ccnc(C(F)(F)F)c1)c1ccnc(C(F)(F)F)c1)c1ccnc(C(F)(F)F)c1 [MC-3, bis(((Z)-2-methyl-3-oxo-1,3-bis(2-(trifluoromethyl)pyridin-4-yl)prop-1-en-1-yl)oxy)copper]",>300 °C,–,decomposition,–,10 mg/ml^2)
